Experimental data from patent publication US20250333398A1, “MONOARYL AND HETARYL SUBSTITUTED INDAZOLES AND BENZIMIDAZOLES AS STING ANTAGONISTS AND THE USE THEREOF AS MEDICAMENT” (Boehringer Ingelheim International GmbH, priority 2024, published 2025).

What was measured:
human STING WT (R232) = molecular target: T1, human STING WT (R232); test: Human STING HTRF binding assay (competitive, Cisbio 64BDSTGPEG); conditions: 6His tagged human STING WT R232, competition with STING ligand-d2
T1 construct: purchased Cisbio 64BDSTGPEG
Experimental: Binders to human STING WT (R232) were identified using a competitive HTRF assay format (Cisbio 64BDSTGPEG), which uses d2-labeled STING ligand, a 6His tagged human STING protein, and an anti 6His Cryptate-labeled antibody. Compounds compete with the STING ligand-d2 and thereby prevents FRET from occurring, which can be measured by an EnVision™ reader (PerkinElmer).
Assay method: Compounds were delivered as 10 mM DMSO solution, serially diluted by an Agilent Bravo Workstation and transferred to the 384 well assay plate (Perkin Elmer #6005359) using a Cybiwell dispenser. Typically, 8 concentrations were used with the highest concentration at 10 μM or 1 μM in the final assay volume followed by ^˜1:5 dilution steps. DMSO concentration was set to 1% in the final assay volume. The 384 well assay plate contained 20 test compounds and DMSO in column 23 and 24. A cGAMP standard dilution row was prepared according to the manufacturer and transferred to each assay plate. After transfer of compound solution or dilution buffer for negative (high) and positive (low) controls, 5 μl of the human STING protein (cyclic binding domain (residues 138-379) of the WT R232 human version, fused to a 6 His tag at the Nter part; 1:50 dilution in detection buffer) were dispensed to all wells except of the positive control, which received detection buffer only. Plates were the centrifuged for 20 sec at 1000 rpm. After that, 10 μl of Anti-6His-Cryptate antibody/Sting ligand-d2 mix was added to all wells using a Multidrop combi dispenser, followed by another 20 sec/1000 rpm centrifugation step. After an incubation of the plates for 180 min at room temperature, […] at […] (HTRF ratio) was measured using an Envison Reader (PerkinElmer)
Data evaluation and calculation: For data evaluation and calculation, HTRF ratios were calibrated using the cGAMP standard curve. After that, the measurement of the low control was set as 0% control and the measurement of the high control was set as 100% control. The IC50 values were calculated using the standard 4 parameter logistic regression formula. Calculation: [y=(a−d)/(1+(x/c)^b)+d], a=low value, d=high value; x=conc M; c=IC50 M; b=slope;

STING = test system: T2, STING; test: Human whole blood assay (HWBA), cGAMP-stimulated IFNα2α production; assay type: cell-based; conditions: human whole blood stimulated by cGAMP
T2 construct: from tissue; host or cells: human whole blood from healthy donors
Experimental: For the detection of STING inhibition in physiological environment human whole blood was stimulated by the cyclic dinucleotide cGAMP. Pathway activity was monitored by measuring the IFNα2α production.
Assay method: Compounds were delivered as 10 mM DMSO solution and serial diluted and transferred to the 96-well Cell culture Plate (Corning #3595), prefilled with 20 μl OptiMEM (Gibco #11058-021) in each well, using an Echo acoustic dispenser. Typically, 8 concentrations were used with the highest concentration at 10 μM in the final assay volume followed by ^˜1:5 dilution steps. DMSO concentration was set to 0.1% in the final assay volume. The 96 well assay plate contained 9 test compounds, a reference compound and DMSO in control wells.
Collection of human whole blood from 3 or more healthy donors (male or female, no medication for 7 days, exception contraceptive and thyroxine) as Na-citrate blood (e.g. 3.8% in Monovettes from Sarstedt) is conducted in parallel. Whole blood was kept at room temperature for a maximum of 3 hours after collection until use in the assay.
160 μl of the whole blood samples were transferred to each well of the 96-well assay plates filled with compound/OptiMEM. All assay plates are prepared as duplicates with blood from different donors. Blood plates were kept at room temperature for 60 minutes and continuous shaking with 450 rpm, covered with the lid, but not sealed.
A 10× cGAMP assay solution was diluted from a 2 mM stock solution in 1×HBSS immediately before use at room temperature. 20 μl of the 10× cGAMP/HBSS were added to all compound and all high control wells, whereas HBSS only was added to all low control wells.
After covering assay plates with aera seals and the lid, blood plates were kept at room temperature for 30 minutes and continuous shaking with 450 rpm, followed by an overnight incubation of 22 h at 37° C. in the incubator, without shaking.
For the detection of IFNα-2α in human plasma, the biotinylated capture antibody (Antibody set IFNA2, Meso Scale Diagnostics #B21VH-3, including coating and capture antibody) was diluted 1:17.5 in Diluent 100 (Meso Scale Diagnostics #R50AA-4, according to the manufacturer. U-Plex MSD GOLD 96-well Small Spot Streptavidin SECTOR Plates (Meso Scale Diagnostics #L45SA-5) were coated with 25 μl diluted capture antibody. Coated plates were incubated for 60 min at room temperature under continuous shaking at 700 rpm. MSD IFNα-2α plates were washed three times with 150 μl wash buffer (1×HBSS, 0.05% Tween).
After blocking the plates with 100 μl block solution/well (1×HBSS with 0.2% Tween, 2% BSA) for 60 min at room temperature and continuous shaking at 700 rpm, plates were emptied as dry as possible by dumping just before continuing with the human plasma. Whole Blood assay plates were centrifuged at 1600 rpm for 10 minutes. 25 μl of supernatant was transferred with a pipetting robotics from each whole blood plate to the corresponding IFNα-2α plate. Plates were sealed with microplate seals and kept at room temperature again under continuous shaking at 700 rpm for two hours. Next MSD IFNα-2α plates were washed three times with 150 μl wash buffer (1×HBSS, 0.05% Tween), before adding 25 μl MSD SULFO-TAG IFNα-2α Antibody solution (1:100 diluted in Diluent 3 (Meso Scale Diagnostics #R50AP-2) to each well of the plates. Afterwards plates were sealed with microplate seals and kept at room temperature again under continuous shaking at 700 rpm for two hours. Finally, MSD IFNα-2α plates were washed three times with 150 μl wash buffer (1×HBSS, 0.05% Tween). 150 μl 2× Read buffer was added to each well and plates were immediately measured with the MSD Sector S600 Reader using the vendor barcode.
Data evaluation and calculation: For data evaluation and calculation, % control calculation of each well was based on the mean of high (cGAMP stimulated control) and mean of low (unstimulated control) controls by using the following formula: […]

What does the source list for `COc1nn(C2CC2)cc1-n1cc2c(-c3nc(-c4ccc(C(N)=O)cc4OC(F)(F)F)n(C)c3C3CC3)cccc2n1` [Example 16, 4-{5-cyclopropyl-4-[2-(1-cyclopropyl-3-methoxy-1H-pyrazol-4-yl)-2H-indazol-4-yl]-1-methyl-1H-imidazol-2-yl}-3-(trifluoromethoxy)benzamide]?
IC50 (human STING WT (R232)): 0.0138 µM; IC50 (STING): 0.035 µM

How did the IC50 (human STING WT (R232)) turn out when `CC[P@](C)(=O)c1ccc(-c2nc(-c3cccc4[nH]c(-c5cc(C(F)(F)F)n(C)n5)nc34)c(C3CC3)n2C)c(OC(F)(F)F)c1` [Example 18, 4-(5-cyclopropyl-2-{4-[(S)-ethyl(methyl)phosphoryl]-2-(trifluoromethoxy)phenyl}-1-methyl-1H-imidazol-4-yl)-2-[1-methyl-5-(trifluoromethyl)-1H-pyrazol-3-yl]-1H-1,3-benzodiazole] was run?
The IC50 was 0.0265 µM.

What about the IC50 (STING) of the same molecule?
Its IC50 is 0.087 µM.

How did the IC50 (human STING WT (R232)) turn out when `Cn1nc(-n2cc3c(-c4nc(-c5ccc(P(C)(C)=O)cc5OC(F)(F)F)n(C)c4C4CC4)cccc3n2)cc1C(F)(F)F` [Example 20, 4-{5-cyclopropyl-2-[4-(dimethylphosphoryl)-2-(trifluoromethoxy)phenyl]-1-methyl-1H-imidazol-4-yl}-2-[1-methyl-5-(trifluoromethyl)-1H-pyrazol-3-yl]-2H-indazole] was run?
Its IC50 is 0.0491 µM.

What about the IC50 (STING) of the same molecule?
Its IC50 is 0.18 µM.

With `COCc1cc(C(N)=O)ccc1-c1nc(-c2cccc3nn(-c4cn(C5CC5)nc4OC)cc23)c(C2CC2)n1C` [Example 12, 4-{5-cyclopropyl-4-[2-(1-cyclopropyl-3-methoxy-1H-pyrazol-4-yl)-2H-indazol-4-yl]-1-methyl-1H-imidazol-2-yl}-3-(methoxymethyl)benzamide] as the molecule, how does the IC50 (human STING WT (R232)) read?
The IC50 was 0.0096 µM.

What about the IC50 (STING) of the same molecule?
The IC50 was 0.84 µM.

How did the IC50 (human STING WT (R232)) turn out when `CCP(=O)(CC)c1ccc(-c2nc(-c3cccc4nn(-c5cc(C(F)(F)F)n(C)n5)cc34)c(C3CC3)n2C)c(OC(F)(F)F)c1` [Example 17, 4-{5-cyclopropyl-2-[4-(diethylphosphoryl)-2-(trifluoromethoxy)phenyl]-1-methyl-1H-imidazol-4-yl}-2-[1-methyl-5-(trifluoromethyl)-1H-pyrazol-3-yl]-2H-indazole] was run?
The IC50 was 0.0481 µM.

What about the IC50 (STING) of the same molecule?
Its IC50 is 0.089 µM.

`COc1nn(C2CC2)cc1-n1cc2c(-c3nc(-c4ccc(C(=O)N(C)C)cc4OC(F)(F)F)n(C)c3C3CC3)cccc2n1` [Example 15, 4-{5-cyclopropyl-4-[2-(1-cyclopropyl-3-methoxy-1H-pyrazol-4-yl)-2H-indazol-4-yl]-1-methyl-1H-imidazol-2-yl}-N,N-dimethyl-3-(trifluoromethoxy)benzamide] was tested. Which IC50 (human STING WT (R232)) did it give?
The IC50 was 0.0329 µM.

What about the IC50 (STING) of the same molecule?
Its IC50 is 0.11 µM.

What does the source list for `COc1nn(C2CC2)cc1-n1cc2c(-c3nn(-c4ccc(P(C)(C)=O)cc4C)c(C)c3C(C)C)cccc2n1` [Example 9, 2-(1-cyclopropyl-3-methoxy-1H-pyrazol-4-yl)-4-{1-[4-(dimethylphosphoryl)-2-methylphenyl]-5-methyl-4-(propan-2-yl)-1H-pyrazol-3-yl}-2H-indazole]?
IC50 (human STING WT (R232)): 0.0176 µM; IC50 (STING): 1.5 µM

With `CCOc1nn(C)cc1-n1cc2c(-c3nc(-c4ccc(C(N)=O)cc4OC(F)(F)F)n(C)c3C3CC3)cccc2n1` [Example 4, 4-{5-cyclopropyl-4-[2-(3-ethoxy-1-methyl-1H-pyrazol-4-yl)-2H-indazol-4-yl]-1-methyl-1H-imidazol-2-yl}-3-(trifluoromethoxy)benzamide] as the molecule, how does the IC50 (human STING WT (R232)) read?
The IC50 was 0.0409 µM.

And the IC50 (STING)?
The IC50 was 0.095 µM.

`Cn1nc(-n2cc3c(-c4nc(-c5ccc(C(N)=O)cc5OC(F)(F)F)n(C)c4C4CC4)cccc3n2)cc1C(F)(F)F` [Example 8, 4-(5-cyclopropyl-1-methyl-4-{2-[1-methyl-5-(trifluoromethyl)-1H-pyrazol-3-yl]-2H-indazol-4-yl}-1H-imidazol-2-yl)-3-(trifluoromethoxy)benzamide] was tested. Which IC50 (human STING WT (R232)) did it give?
The IC50 was 0.0853 µM.

And the IC50 (STING)?
The IC50 was 0.08 µM.

`CC[P@](C)(=O)c1ccc(-c2nc(-c3cccc4nn(-c5cn(C6CC6)nc5OC)cc34)c(C3CC3)n2C)c(OC(F)(F)F)c1` [Example 14, 4-(5-cyclopropyl-2-{4-[(S)-ethyl(methyl)phosphoryl]-2-(trifluoromethoxy)phenyl}-1-methyl-1H-imidazol-4-yl)-2-(1-cyclopropyl-3-methoxy-1H-pyrazol-4-yl)-2H-indazole] was tested. Which IC50 (human STING WT (R232)) did it give?
Its IC50 is 0.00649 µM.

And the IC50 (STING)?
The IC50 was 0.011 µM.

For `COc1nn(CC(C)(C)O)cc1-n1cc2c(-c3nc(-c4ccc(C(N)=O)cc4OC(F)(F)F)n(C)c3C3CC3)cccc2n1` [Example 11, 4-(5-cyclopropyl-4-{2-[1-(2-hydroxy-2-methylpropyl)-3-methoxy-1H-pyrazol-4-yl]-2H-indazol-4-yl}-1-methyl-1H-imidazol-2-yl)-3-(trifluoromethoxy)benzamide], which IC50 (human STING WT (R232)) is on record?
The IC50 was 0.0423 µM.

What about the IC50 (STING) of the same molecule?
Its IC50 is 0.88 µM.

`CC[P@](C)(=O)c1ccc(-c2nc(-c3cccc4nn(-c5cc(C(F)(F)F)n(C)n5)cc34)c(C3CC3)n2C)c(OC(F)(F)F)c1` [Example 10, 4-(5-cyclopropyl-2-{4-[(S)-ethyl(methyl)phosphoryl]-2-(trifluoromethoxy)phenyl}-1-methyl-1H-imidazol-4-yl)-2-[1-methyl-5-(trifluoromethyl)-1H-pyrazol-3-yl]-2H-indazole] was tested. Which IC50 (human STING WT (R232)) did it give?
Its IC50 is 0.0319 µM.

What about the IC50 (STING) of the same molecule?
Its IC50 is 0.078 µM.

How did the IC50 (human STING WT (R232)) turn out when `CC[P@](C)(=O)c1ccc(-c2nc(-c3cccc4nn(-c5cc(C6CC6)n(C)n5)cc34)c(C3CC3)n2C)c(OC(F)(F)F)c1` [Example 19, 2-(5-cyclopropyl-1-methyl-1H-pyrazol-3-yl)-4-(5-cyclopropyl-2-{4-[(S)-ethyl(methyl)phosphoryl]-2-(trifluoromethoxy)phenyl}-1-methyl-1H-imidazol-4-yl)-2H-indazole] was run?
The IC50 was 0.018 µM.

And the IC50 (STING)?
The IC50 was 0.14 µM.

Which results are given for `Cn1nc(-n2cc3c(-c4nc(-c5ccc(P(C)(C)=O)cc5OC(F)(F)F)n(C)c4C4CC4)cccc3n2)cc1C(F)F` [Example 2, 4-{5-cyclopropyl-2-[4-(dimethylphosphoryl)-2-(trifluoromethoxy)phenyl]-1-methyl-1H-imidazol-4-yl}-2-[5-(difluoromethyl)-1-methyl-1H-pyrazol-3-yl]-2H-indazole]?
IC50 (human STING WT (R232)): 0.0254 µM; IC50 (STING): 0.21 µM
